Data published in the supplement of paper PMC10307832.

Columns and labels:
Test in all cases: relative viability (nuclei count vs DMSO), 5 days (fraction); higher = more cells survive
NCI-H2347 = system: NCI-H2347
Outline: (§1)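 Lung cancer cell lines were pin-tool dosed in 1536-well plates on the day after seeding, with either a lone drug or a fixed anchor-drug dose plus five library-drug doses (not always all listed) in √10 steps. Nuclei were counted on 4× images after 5 days. Relative viability is the ratio of treated-well to vehicle-well nuclei counts, with each value a median of duplicate plates.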

NCI-H650 = system: NCI-H650
Outline: as §1

NCI-H522 = system: NCI-H522
Outline: as §1

NCI-H441 = system: NCI-H441
Outline: as §1

201T = system: 201T
Outline: as §1

NCI-H1395 = system: NCI-H1395
Outline: as §1

NCI-H2087 = system: NCI-H2087
Outline: as §1

NCI-H647 = system: NCI-H647
Outline: as §1

NCI-H596 = system: NCI-H596
Outline: as §1

NCI-H2009 = system: NCI-H2009
Outline: as §1

NCI-H3122 = system: NCI-H3122
Outline: as §1

EMC-BAC-2 = system: EMC-BAC-2
Outline: as §1

NCI-H2023 = system: NCI-H2023
Outline: as §1

NCI-H1666 = system: NCI-H1666
Outline: as §1

LCLC-103H = system: LCLC-103H
Outline: as §1

BEN = system: BEN
Outline: as §1

NCI-H23 = system: NCI-H23
Outline: as §1

HARA = system: HARA
Outline: as §1

NCI-H838 = system: NCI-H838
Outline: as §1

LOU-NH91 = system: LOU-NH91
Outline: as §1

HCC-44 = system: HCC-44
Outline: as §1

NCI-H727 = system: NCI-H727
Outline: as §1

NCI-H2126 = system: NCI-H2126
Outline: as §1

NCI-H1993 = system: NCI-H1993
Outline: as §1

Q: Which relative viability (NCI-H2347; first compound 0.04 µM) does the source give for `COc1cc(N2CCC(C(N)=O)CC2)ccc1Nc1nc(N)c(Cl)c(Nc2ccccc2S(=O)(=O)C(C)C)n1` [HG-5-88-01] + Cc1cc(Nc2cc(N3CCN(C)CC3)nc(Sc3ccc(NC(=O)C4CC4)cc3)n2)n[nH]1 [Tozasertib] (partner 0.1 µM) here?
A: 0.638

Q: What about the relative viability (NCI-H2347; first compound 0.1265 µM) of the same compound?
A: 0.563

Q: What about the relative viability (NCI-H2347; first compound 0.4 µM) of the same compound?
A: 0.743

Q: What about the relative viability (NCI-H2347; first compound 1.265 µM) of the same compound?
A: 0.392

Q: What about the relative viability (NCI-H2347; first compound 4 µM) of the same compound?
A: 0.398

Q: What about the relative viability (NCI-H650; first compound 0.04 µM) of the same compound?
A: 0.765

Q: What about the relative viability (NCI-H650; first compound 0.1265 µM) of the same compound?
A: 0.72

Q: What about the relative viability (NCI-H650; first compound 0.4 µM) of the same compound?
A: 0.594

Q: And the relative viability (NCI-H650; first compound 1.265 µM)?
A: 0.461

Q: And the relative viability (NCI-H650; first compound 4 µM)?
A: 0.523

Q: What about the relative viability (NCI-H522; first compound 0.04 µM) of the same compound?
A: 0.567

Q: And the relative viability (NCI-H522; first compound 0.1265 µM)?
A: 0.454

Q: What about the relative viability (NCI-H522; first compound 0.4 µM) of the same compound?
A: 0.584

Q: What about the relative viability (NCI-H522; first compound 1.265 µM) of the same compound?
A: 0.57

Q: And the relative viability (NCI-H522; first compound 4 µM)?
A: 0.454

Q: And the relative viability (NCI-H441; first compound 0.04 µM)?
A: 0.696

Q: What about the relative viability (NCI-H441; first compound 0.1265 µM) of the same compound?
A: 0.632

Q: What about the relative viability (NCI-H441; first compound 0.4 µM) of the same compound?
A: 0.638

Q: And the relative viability (NCI-H441; first compound 1.265 µM)?
A: 0.422

Q: What about the relative viability (NCI-H441; first compound 4 µM) of the same compound?
A: 0.332

Q: What about the relative viability (201T; first compound 0.04 µM) of the same compound?
A: 0.963

Q: And the relative viability (201T; first compound 0.1265 µM)?
A: 0.903

Q: What about the relative viability (201T; first compound 0.4 µM) of the same compound?
A: 0.939

Q: What about the relative viability (201T; first compound 1.265 µM) of the same compound?
A: 0.871

Q: And the relative viability (201T; first compound 4 µM)?
A: 0.911

Q: And the relative viability (NCI-H1395; first compound 0.04 µM)?
A: 0.79

Q: And the relative viability (NCI-H1395; first compound 0.1265 µM)?
A: 0.692

Q: What about the relative viability (NCI-H1395; first compound 0.4 µM) of the same compound?
A: 0.859

Q: What about the relative viability (NCI-H1395; first compound 1.265 µM) of the same compound?
A: 0.716

Q: What about the relative viability (NCI-H1395; first compound 4 µM) of the same compound?
A: 0.65

Q: And the relative viability (NCI-H2087; first compound 0.04 µM)?
A: 0.266

Q: And the relative viability (NCI-H2087; first compound 0.1265 µM)?
A: 0.203

Q: What about the relative viability (NCI-H2087; first compound 0.4 µM) of the same compound?
A: 0.262

Q: What about the relative viability (NCI-H2087; first compound 1.265 µM) of the same compound?
A: 0.22

Q: And the relative viability (NCI-H2087; first compound 4 µM)?
A: 0.14

Q: What about the relative viability (NCI-H647; first compound 0.04 µM) of the same compound?
A: 0.236

Q: What about the relative viability (NCI-H647; first compound 0.1265 µM) of the same compound?
A: 0.403

Q: What about the relative viability (NCI-H647; first compound 0.4 µM) of the same compound?
A: 0.309

Q: And the relative viability (NCI-H647; first compound 1.265 µM)?
A: 0.203

Q: What about the relative viability (NCI-H647; first compound 4 µM) of the same compound?
A: 0.216

Q: What about the relative viability (NCI-H596; first compound 0.04 µM) of the same compound?
A: 0.955

Q: And the relative viability (NCI-H596; first compound 0.1265 µM)?
A: 0.907

Q: And the relative viability (NCI-H596; first compound 0.4 µM)?
A: 0.877

Q: And the relative viability (NCI-H596; first compound 1.265 µM)?
A: 1.09

Q: What about the relative viability (NCI-H596; first compound 4 µM) of the same compound?
A: 1

Q: What about the relative viability (NCI-H2009; first compound 0.04 µM) of the same compound?
A: 0.734

Q: What about the relative viability (NCI-H2009; first compound 0.1265 µM) of the same compound?
A: 0.753

Q: What about the relative viability (NCI-H2009; first compound 0.4 µM) of the same compound?
A: 0.611

Q: And the relative viability (NCI-H2009; first compound 1.265 µM)?
A: 0.578

Q: And the relative viability (NCI-H2009; first compound 4 µM)?
A: 0.451

Q: What about the relative viability (NCI-H3122; first compound 0.04 µM) of the same compound?
A: 0.221

Q: And the relative viability (NCI-H3122; first compound 0.1265 µM)?
A: 0.146

Q: What about the relative viability (NCI-H3122; first compound 0.4 µM) of the same compound?
A: 0.08

Q: What about the relative viability (NCI-H3122; first compound 1.265 µM) of the same compound?
A: 0.112

Q: And the relative viability (NCI-H3122; first compound 4 µM)?
A: 0.0832

Q: What about the relative viability (EMC-BAC-2; first compound 0.04 µM) of the same compound?
A: 0.296

Q: And the relative viability (EMC-BAC-2; first compound 0.1265 µM)?
A: 0.288

Q: What about the relative viability (EMC-BAC-2; first compound 0.4 µM) of the same compound?
A: 0.261

Q: And the relative viability (EMC-BAC-2; first compound 1.265 µM)?
A: 0.264

Q: What about the relative viability (EMC-BAC-2; first compound 4 µM) of the same compound?
A: 0.24

Q: And the relative viability (NCI-H2023; first compound 0.04 µM)?
A: 0.35

Q: What about the relative viability (NCI-H2023; first compound 0.1265 µM) of the same compound?
A: 0.362

Q: And the relative viability (NCI-H2023; first compound 0.4 µM)?
A: 0.262

Q: And the relative viability (NCI-H2023; first compound 1.265 µM)?
A: 0.108

Q: What about the relative viability (NCI-H2023; first compound 4 µM) of the same compound?
A: 0.107

Q: And the relative viability (NCI-H1666; first compound 0.04 µM)?
A: 0.577

Q: And the relative viability (NCI-H1666; first compound 0.1265 µM)?
A: 0.603

Q: And the relative viability (NCI-H1666; first compound 0.4 µM)?
A: 0.556

Q: What about the relative viability (NCI-H1666; first compound 1.265 µM) of the same compound?
A: 0.498

Q: And the relative viability (NCI-H1666; first compound 4 µM)?
A: 0.346

Q: What about the relative viability (LCLC-103H; first compound 0.04 µM) of the same compound?
A: 0.483

Q: And the relative viability (LCLC-103H; first compound 0.1265 µM)?
A: 0.511

Q: And the relative viability (LCLC-103H; first compound 0.4 µM)?
A: 0.386

Q: What about the relative viability (LCLC-103H; first compound 1.265 µM) of the same compound?
A: 0.611

Q: What about the relative viability (LCLC-103H; first compound 4 µM) of the same compound?
A: 0.345

Q: And the relative viability (BEN; first compound 0.04 µM)?
A: 0.554

Q: What about the relative viability (BEN; first compound 0.1265 µM) of the same compound?
A: 0.482

Q: What about the relative viability (BEN; first compound 0.4 µM) of the same compound?
A: 0.509

Q: And the relative viability (BEN; first compound 1.265 µM)?
A: 0.484

Q: And the relative viability (BEN; first compound 4 µM)?
A: 0.531

Q: And the relative viability (NCI-H23; first compound 0.04 µM)?
A: 0.337

Q: What about the relative viability (NCI-H23; first compound 0.1265 µM) of the same compound?
A: 0.388

Q: And the relative viability (NCI-H23; first compound 0.4 µM)?
A: 0.32

Q: What about the relative viability (NCI-H23; first compound 1.265 µM) of the same compound?
A: 0.284

Q: And the relative viability (NCI-H23; first compound 4 µM)?
A: 0.251

Q: What about the relative viability (HARA; first compound 0.04 µM) of the same compound?
A: 0.108

Q: And the relative viability (HARA; first compound 0.1265 µM)?
A: 0.132

Q: And the relative viability (HARA; first compound 0.4 µM)?
A: 0.0858

Q: What about the relative viability (HARA; first compound 1.265 µM) of the same compound?
A: 0.099

Q: And the relative viability (HARA; first compound 4 µM)?
A: 0.0727

Q: And the relative viability (NCI-H838; first compound 0.04 µM)?
A: 0.234

Q: What about the relative viability (NCI-H838; first compound 0.1265 µM) of the same compound?
A: 0.256

Q: And the relative viability (NCI-H838; first compound 0.4 µM)?
A: 0.185

Q: And the relative viability (NCI-H838; first compound 1.265 µM)?
A: 0.209

Q: What about the relative viability (NCI-H838; first compound 4 µM) of the same compound?
A: 0.21

Q: And the relative viability (LOU-NH91; first compound 0.04 µM)?
A: 0.657

Q: What about the relative viability (LOU-NH91; first compound 0.1265 µM) of the same compound?
A: 0.614

Q: What about the relative viability (LOU-NH91; first compound 0.4 µM) of the same compound?
A: 0.513

Q: And the relative viability (LOU-NH91; first compound 1.265 µM)?
A: 0.376

Q: What about the relative viability (LOU-NH91; first compound 4 µM) of the same compound?
A: 0.366

Q: What about the relative viability (HCC-44; first compound 0.04 µM) of the same compound?
A: 1.1

Q: What about the relative viability (HCC-44; first compound 0.1265 µM) of the same compound?
A: 0.928

Q: What about the relative viability (HCC-44; first compound 0.4 µM) of the same compound?
A: 0.745

Q: And the relative viability (HCC-44; first compound 1.265 µM)?
A: 0.328

Q: What about the relative viability (HCC-44; first compound 4 µM) of the same compound?
A: 0.14

Q: And the relative viability (NCI-H727; first compound 0.04 µM)?
A: 0.594

Q: What about the relative viability (NCI-H727; first compound 0.1265 µM) of the same compound?
A: 0.665

Q: What about the relative viability (NCI-H727; first compound 0.4 µM) of the same compound?
A: 0.582

Q: And the relative viability (NCI-H727; first compound 1.265 µM)?
A: 0.429

Q: What about the relative viability (NCI-H727; first compound 4 µM) of the same compound?
A: 0.429

Q: And the relative viability (NCI-H2126; first compound 0.04 µM)?
A: 0.937

Q: What about the relative viability (NCI-H2126; first compound 0.1265 µM) of the same compound?
A: 0.941

Q: What about the relative viability (NCI-H2126; first compound 0.4 µM) of the same compound?
A: 0.849

Q: And the relative viability (NCI-H2126; first compound 1.265 µM)?
A: 0.467

Q: And the relative viability (NCI-H2126; first compound 4 µM)?
A: 0.487

Q: And the relative viability (NCI-H1993; first compound 0.04 µM)?
A: 0.607

Q: What about the relative viability (NCI-H1993; first compound 0.1265 µM) of the same compound?
A: 0.635

Q: And the relative viability (NCI-H1993; first compound 0.4 µM)?
A: 0.595

Q: And the relative viability (NCI-H1993; first compound 1.265 µM)?
A: 0.556

Q: What about the relative viability (NCI-H1993; first compound 4 µM) of the same compound?
A: 0.535
